≈ marks a conversion by molar mass, not a printed value. Where “and” joins values, the source holds several entries; their conditions need not be identical. Equal entries are not always repeated. Where two headings read alike, the source gives them in different places.
Columns and labels:
[1] = Radiolabeled metabolism and excretion in rats; assay type: in vivo; conditions: for Share of radioactivity in AUC-pooled plasma: analyte after IV RDV
Solubility (PBS) = assay type: physicochemical; conditions: aqueous buffer
LogD = assay type: physicochemical
[2] = Permeability (MDCK A-to-B); assay type: in vitro ADME, canine; conditions: dog, MDCK-MDR1, pH 7.4
plasma protein = test: Plasma protein binding; assay type: in vitro ADME, mouse, rat, dog, monkey, and human
[3] = Plasma stability (Table 1, across species); assay type: in vitro ADME, mouse, rat, dog, monkey, and human
[4] = Intestinal (GI) S9 fraction stability; assay type: in vitro ADME, rat, dog, monkey, and human; conditions: for S9 Stability, Intestinal: assessed in rat, dog, monkey, and human
[5] = Hepatic S9 fraction stability; assay type: in vitro ADME, rat, dog, monkey, and human
[6] = test system: OATP1B1/3, P-gp, BCRP, ENT1/2, CNT3; test: Transporter substrate assessment; assay type: in vitro ADME, human
[7] = test system: hydrolases (CatA, CES-1/2, HINT1); test: Enzyme hydrolysis phenotype; assay type: in vitro ADME
[8] = Oral ODV PK in portal-vein-cannulated monkey; assay type: in vivo, cynomolgus monkey; conditions: for Time of plasma Cmax in both portal and systemic circulation: analyte after oral ODV 14.4 mg/kg, single monkey
[9] = QWBA tissue distribution of radioactivity; assay type: in vivo; conditions: oral [14C]ODV 200 mg/kg, rats
[10] = mean ± SD, N = 3, cited from earlier work
[11] = cited from earlier work
[12] = cited from earlier work; remark: listed apart in the source
[13] = Plasma stability, cynomolgus monkey plasma; assay type: in vitro ADME
[14] = Plasma stability, human plasma; assay type: in vitro ADME
CatA = target: T1, CatA (Homo sapiens, UniProt P10619); test: Enzyme hydrolysis phenotype, fraction metabolized by CatA; assay type: in vitro ADME
T1 sequence (P10619 29-480): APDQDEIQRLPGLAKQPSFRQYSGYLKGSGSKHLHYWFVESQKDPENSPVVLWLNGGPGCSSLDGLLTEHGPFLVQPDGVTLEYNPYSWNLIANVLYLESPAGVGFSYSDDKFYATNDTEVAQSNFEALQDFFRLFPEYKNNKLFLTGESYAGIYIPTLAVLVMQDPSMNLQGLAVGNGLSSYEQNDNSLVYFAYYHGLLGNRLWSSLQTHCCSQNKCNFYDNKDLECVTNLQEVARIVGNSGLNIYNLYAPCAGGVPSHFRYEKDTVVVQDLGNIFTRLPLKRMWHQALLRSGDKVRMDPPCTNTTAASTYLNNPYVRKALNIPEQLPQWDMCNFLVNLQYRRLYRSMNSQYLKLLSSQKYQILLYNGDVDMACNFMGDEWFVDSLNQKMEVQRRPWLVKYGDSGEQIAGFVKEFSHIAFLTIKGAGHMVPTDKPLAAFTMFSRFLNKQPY

CES-1 = target: T2, CES-1 (Homo sapiens, UniProt P23141); test: Enzyme hydrolysis phenotype, fraction metabolized by CES-1; assay type: in vitro ADME
T2 sequence (P23141 18-567): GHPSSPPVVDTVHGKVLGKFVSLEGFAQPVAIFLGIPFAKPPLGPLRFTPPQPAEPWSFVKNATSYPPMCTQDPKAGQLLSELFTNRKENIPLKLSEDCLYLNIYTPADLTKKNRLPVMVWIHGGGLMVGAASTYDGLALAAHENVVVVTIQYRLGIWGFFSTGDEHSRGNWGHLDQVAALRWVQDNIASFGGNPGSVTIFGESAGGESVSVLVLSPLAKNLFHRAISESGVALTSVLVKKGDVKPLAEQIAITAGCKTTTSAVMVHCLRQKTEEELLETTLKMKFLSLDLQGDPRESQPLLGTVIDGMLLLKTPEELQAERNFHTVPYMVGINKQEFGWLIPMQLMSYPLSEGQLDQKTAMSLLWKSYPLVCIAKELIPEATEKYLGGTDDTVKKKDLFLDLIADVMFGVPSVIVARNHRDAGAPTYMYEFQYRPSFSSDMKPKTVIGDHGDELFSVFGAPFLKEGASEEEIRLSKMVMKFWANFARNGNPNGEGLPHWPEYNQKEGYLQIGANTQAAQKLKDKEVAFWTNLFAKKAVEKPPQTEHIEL

in vivo = assay type: in vivo, cynomolgus monkeys
[15] = cynomolgus monkey, in vivo, iv, 10 mg/kg, 24 h
[16] = cited from earlier work; remark: listed apart in the source
[17] = test system: OATP1B1/3, P-gp, BCRP, ENT1/2, CNT3; conditions: cited from earlier work
[18] = in vivo, cyno; cited from earlier work
[19] = Microautoradiography (MARG) of lung and trachea; assay type: in vivo, Sprague Dawley rats; parameters: Radioactivity in Blood vessels / Radioactivity in Trachea (representative) / Radioactivity in Bronchus (cartilage) / Radioactivity in Bronchus (smooth muscle) / Radioactivity in Bronchus (epithelium) / Radioactivity in Bronchioles / Radioactivity in Alveoli wall: key: +++: moderate levels of silver grains present; ++: low levels of silver grains present; +: background levels of silver grains present; conditions: [3H] compound, 30 min IV infusion 10 mg/kg (3700 µCi/kg), 1 h after infusion; per animal; for Radioactivity in Alveoli sac: key: +++: moderate levels of silver grains present; ++: low levels of silver grains present; +: background levels of silver grains present; for Radioactivity in Blood vessels: key: +++: moderate levels of silver grains present; ++: low levels of silver grains present; +: background levels of silver grains present; for Radioactivity in Bronchioles: key: +++: moderate levels of silver grains present; ++: low levels of silver grains present; +: background levels of silver grains present; for Radioactivity in Bronchus (cartilage): key: +++: moderate levels of silver grains present; ++: low levels of silver grains present; +: background levels of silver grains present
adenosine deaminase = conditions: cited from earlier work
[20] = cynomolgus monkey; cited from earlier work
[21] = human; cited from earlier work
[22] = GS-441524 plasma PK across species; conditions: for half-life: BALB/c (mouse), Sprague Dawley (rat), beagle (dog)
[23] = PBS, read-out: Solubility (PBS)
[24] = A-to-B, read-out: Permeability (MDCK A-to-B)
[25] = range over mouse, rat, dog, monkey, and human
[26] = assessed in mouse, rat, dog, monkey, and human
[27] = assessed in rat, dog, monkey, and human
[28] = ODV oral 11.6 mg/kg (9.4 mg-eq/kg)
[29] = cynomolgus monkey, in vivo, iv, 10 mg/kg
[30] = male, Sprague Dawley, rat, in vivo, iv
[31] = cynomolgus monkey, in vivo, iv, 10 mg/kg, analyte in plasma after IV RDV 10 mg/kg 30-min infusion, mean ± SD, N = 3, read-out: T1/2 in plasma (converted)
[32] = GS-441524 IV 30 min infusion 20 mg/kg

N#CC1(c2ccc3c(=O)[nH]cnn23)OC(CO)C(O)C1O (stereo not drawn) [Deaminated nucleoside]
Level in feces, fold lower than GS-441524 ([1]; minor metabolite after oral ODV, rats and humans): 5- to 10 fold

CC(C)C(=O)OC[C@H]1O[C@@](C#N)(c2ccc3c(N)ncnn23)[C@H](O)[C@@H]1O [ODV, obeldesivir]
solubility (Solubility (PBS); [23]): ~1000 µg/mL (≈ 2770 µM)
logD (LogD): 0.9
Papp A→B at 120 min [2, 24]: 1.8 ×10⁻⁶ cm/s
Plasma protein binding (% free) (plasma protein; [25]): 56–76 % free
Plasma stability [3, 26]: Unstable (stable in dog)
Stability in GI S9 fractions ([4]; PMSF-free GI S9 from cynomolgus monkeys and humans, 2 µM): poor
S9 Stability, Intestinal [4]: Unstable
Stability in Hep S9 fractions ([5]; Hep S9 from cynomolgus monkeys and humans, 2 µM): poor
S9 Stability, Hepatic [5, 27]: Unstable
Transporter substrate [6]: BCRP/P-gp
Transporter substrate (text) [6]: substrate for both BCRP and P-gp transporters
Enzyme hydrolysis phenotype [7]: CES-1/2
Time of plasma Cmax in both portal and systemic circulation [8]: 0.25 h
Hepatic extraction of intact ODV absorbed ([8]; portal vs systemic plasma ODV exposures, oral ODV 14.4 mg/kg): near complete hepatic extraction
Persistence of radioactivity in tissues [9]: little [^14C]ODV-related radioactivity was detected after 24 h
Time by which broad distribution of drug-associated radioactivity was observed [9]: ≤ 0.25 h
Fecal excretion, of administered dose, mean ([1]; oral ODV, rats): 52%
Total mean [14C] dose recovery ([1]; oral ODV, rats): greater than 90%
Urinary excretion, mean ([1]; oral ODV, rats): 33%
Plasma GS-441524 AUC0–24h [10, 28]: 21,600 ± 11,000 nM·h
Plasma GS-441524 T1/2 [10, 28]: 2.62 ± 0.55 h
Plasma GS-441524 Tmax [10, 28]: 1.67 ± 0.58 h
Cmax ([10]; read-out: Plasma GS-441524 Cmax, ODV oral 11.6 mg/kg (9.4 mg-eq/kg)): 7.57 ± 6.07 µM
Fecal excretion, of administered dose, mean ([11]; oral ODV, humans): 32%
Total mean [14C] dose recovery ([11]; oral ODV, humans): greater than 90%
Urinary excretion, mean ([11]; oral ODV, humans): 58%
Oral bioavailability of GS-441524, estimated ([12]; clinical ODV 350 mg oral tablet): 41% to 50

CCC(CC)COC(=O)[C@H](C)N[P@](=O)(OC[C@H]1O[C@@](C#N)(c2ccc3c(N)ncnn23)[C@H](O)[C@@H]1O)Oc1ccccc1 [RDV, remdesivir, reference compound]
solubility (Solubility (PBS)): 40.1 µg/mL (≈ 66.5 µM)
logD (LogD): 2.5
Papp A→B at 120 min [2]: 1.32 ×10⁻⁶ cm/s
Plasma protein binding (% free) (plasma protein; plasma): 6–14 % free
Plasma stability [3]: Moderately Stable (unstable in mouse, rat)
half-life at 2 µM ([13]; cynomolgus monkey, plasma): 6.42 h
half-life at 2 µM ([14]; human, plasma): 1.3 h
S9 Stability, Hepatic [5]: Unstable
Transporter substrate ([6]; human): OATP1B1/P-gp
Enzyme hydrolysis phenotype (fm), CatA (CatA): 10%
Enzyme hydrolysis phenotype (fm), CES-1 (CES-1): 80%
Vd (in vivo; [29]): 0.504 ± 0.175 L/kg
clearance (in vivo; [29]): 40 mL/min/kg
Fecal excretion, of administered dose [1, 30]: approximately 25%
Total mean [14C] dose recovery [1, 30]: greater than 90%
Urinary excretion, mean [1, 30]: 61%
Lung GS-443902 C24h [15]: 1.39 ± 0.15 nmol/g
PBMC GS-443902 C24h [15]: 31.0 ± 11.8 µM
Predicted human hepatic extraction: > 0.9
Stability in hepatic S9 [16]: unstable
Transporter substrate (text) [17]: substrate for both OATP1B1 and P-gp
Fecal excretion, of administered dose ([11]; in vivo, iv): ~18%
Total mean [14C] dose recovery ([11]; in vivo, iv): greater than 90%
Urinary excretion, mean ([11]; in vivo, iv): 74%
Oral bioavailability [18]: < 1%

N#C[C@@]1(c2ccc3c(N)ncnn23)O[C@H](CO)[C@@H](O)[C@H]1O [GS-441524]
solubility (Solubility (PBS); [23]): 26.5 µg/mL (≈ 91 µM)
logD (LogD): < 0.3
Papp A→B at 120 min [2, 24]: 0.16 ×10⁻⁶ cm/s
Plasma protein binding (% free) (plasma protein; [25]): 85–99 % free
Plasma stability [3, 26]: Stable
S9 Stability, Intestinal [4]: Stable
S9 Stability, Hepatic [5, 27]: Stable
Transporter substrate (text) [6]: substrate for P-gp
Transporter substrate ([6]; human): BCRP/P-gp ENT1/2/CNT3
half-life (in vivo; [31]): 16.1 ± 4 h
Time of plasma Cmax in both portal and systemic circulation [8]: 1 h
Radioactivity in Alveoli sac [19]: ++ (2×) and +
Radioactivity in Alveoli wall [19]: +++
Radioactivity in Blood vessels [19]: +++
Radioactivity in Bronchioles [19]: +++
Radioactivity in Bronchus (cartilage) [19]: ++ and +++
Radioactivity in Bronchus (epithelium) [19]: ++ and +++
Radioactivity in Bronchus (smooth muscle) [19]: ++
Radioactivity in Trachea (representative) [19]: ++
Share of radioactivity in AUC-pooled plasma ([1]; rats): approximately 70%
Share of total radioactivity in plasma ([1]; analyte after oral ODV, rats): > 97%
Share of total sample radioactivity in feces ([1]; analyte after oral ODV, rats): ~ 85%
Adenosine deaminase substrate (adenosine deaminase): weak substrate for adenosine deaminase
Stability in plasma [20]: stable
Stability in plasma [21]: stable
Plasma GS-441524 AUC0–24h [10, 32]: 124,000 ± 11,000 nM·h
Plasma GS-441524 Tmax [10, 32]: 0.516 ± 0.058 h
Share of total radioactivity in plasma ([11]; analyte after IV RDV, humans): ~ 53%
Share of total radioactivity in plasma ([11]; analyte after oral ODV, humans): > 97%
Share of total sample radioactivity in feces ([11]; analyte after oral ODV, humans): 98%
Oral bioavailability of GS-441524, estimated ([12]; oral solution (55 °C) of GS-441524, human PK): < 15%
half-life ([22]; plasma, iv): 0.7 to 3.4 h
half-life ([22]; plasma, po): 1.4 to 4.2 h
Volume of distribution ([22]; IV, across species): moderate volume of distribution
clearance ([22]; IV, across species): low to moderate clearance
bioavailability ([22]; cynomolgus monkey, plasma, po): ~5%

C[C@H](NP(=O)(O)OC[C@H]1O[C@@](C#N)(c2ccc3c(N)ncnn23)[C@H](O)[C@@H]1O)C(=O)O [GS-704277]
Plasma protein binding (% free) (plasma protein; [25]): 95–100 % free
Plasma stability ([3]; assessed in monkey and human): Stable ^d
Stability in plasma ([13]; cynomolgus monkey plasma, 2 µM, 240 min incubation): stable
Stability in plasma ([14]; human plasma, 2 µM, 240 min incubation): stable
Transporter substrate ([6]; human): OATP1B1/3
Enzyme hydrolysis phenotype [7]: HINT1
half-life (in vivo; [31]): 0.56 ± 0.01 h
Share of radioactivity in AUC-pooled plasma ([1]; rats): ~20%

N#C[C@@]1(c2ccc3c(N)ncnn23)O[C@H](COP(=O)(O)OP(=O)(O)OP(=O)(O)O)[C@@H](O)[C@H]1O [GS-443902]
T1/2 in PBMC (in vivo; analyte in PBMC after IV RDV 10 mg/kg 30-min infusion, N = 3): 29.4 ± 3.0 h
half-life (in vivo; cynomolgus monkey, in vivo, iv, 10 mg/kg, analyte in PBMC after IV RDV 10 mg/kg 30-min infusion, N = 3, read-out: T1/2 in PBMC (converted)): 29 h

Source: article PMC12197660 (Viruses, 2025)
